From patent US7258872B1, “Chromone enteric release formulation” (Thornton & Ross Limited, priority 1998, dated 2007)

What was measured:
B lymphocytes = conditions: cited from earlier work
[1] = Solubility of sodium cromoglycate in water; format: physicochemical
From the text: Water may be used without additional binder or surfactant.

[2] = cited from earlier work

freely soluble up to [1]: up to 5% | soluble with difficulty up to [1]: up to 10%
SMILES: O=C(O)c1cc(=O)c2c(OCC(O)COc3cccc4oc(C(=O)O)cc(=O)c34)cccc2o1 [sodium cromoglycate]
effect on IgE synthesis by B lymphocytes (B lymphocytes): reduce the ability of IgE-producing cells, the B lymphocytes, to synthesise IgE antibody | solubility in acid ([2]; acid medium / gastric fluid): insoluble in an acid medium | lipid solubility ([2]; model assumption): lipid insoluble | water solubility ([2]; model assumption): water soluble
